Legend:
[1] = tested on: antibodies in sera from SARS patients (sera 1a, 1b, 2, 6, 37, 62, London, SARS-yellow, SARS-green); format: binding, human; design: Binding of serum 6 to linear peptides of protein X1 of SARS-CoV Urbani / Binding of serum 37 to linear peptides of protein X1 of SARS-CoV Urbani / Binding of serum 6 to looped/cyclic peptide (PEPSCAN-ELISA) / Binding of serum 37 to looped/cyclic peptide (PEPSCAN-ELISA) / Binding of serum 37 to looped/cyclic peptides of protein X1 of SARS-CoV Urbani / Binding of serum 6 to linear peptides of protein X2 / Binding of serum 37 to linear peptides of protein X2 / Binding of serum 37 to looped/cyclic peptides of protein X2 of SARS-CoV Urbani / Binding of serum 6 to linear peptides of protein M of SARS-CoV Urbani / Binding of serum 37 to linear peptides of protein M of SARS-CoV Urbani / Binding of serum 6 to looped/cyclic peptides of protein M of SARS-CoV Urbani / Binding of serum 37 to looped/cyclic peptides of protein M of SARS-CoV Urbani / Binding of serum 6 to linear peptides of protein X3 of SARS-CoV Urbani / Binding of serum 37 to linear peptides of protein X3 of SARS-CoV Urbani / Binding of serum 37 to looped/cyclic peptides of protein X3 of SARS-CoV Urbani / Binding of serum 6 to linear peptides of protein X4 of SARS-CoV Urbani / Binding of serum 37 to linear peptides of protein X4 of SARS-CoV Urbani / Binding of serum 37 to looped/cyclic peptides of protein X4 of SARS-CoV Urbani / Binding of serum 6 to linear peptides of protein X5 of SARS-CoV Urbani / Binding of serum 37 to linear peptides of protein X5 of SARS-CoV Urbani / Binding of serum 37 to looped/cyclic peptides of protein X5 of SARS-CoV Urbani / Binding of serum 6 to linear peptides of protein N of SARS-CoV Urbani / Binding of serum 37 to linear peptides of protein N of SARS-CoV Urbani / Binding of serum 6 to linear peptide (PEPSCAN-ELISA) / Binding of serum 1a to looped/cyclic peptides of protein N of SARS-CoV Urbani / Binding of serum 1b to looped/cyclic peptides of protein N of SARS-CoV Urbani / Binding of serum 2 to looped/cyclic peptides of protein N of SARS-CoV Urbani / Binding of serum 6 to looped/cyclic peptides of protein N of SARS-CoV Urbani / Binding of serum 37 to looped/cyclic peptides of protein N of SARS-CoV Urbani / Binding of serum 62 to looped/cyclic peptides of protein N of SARS-CoV Urbani / Binding of serum London to looped/cyclic peptides of protein N of SARS-CoV Urbani / Binding of serum SARS-green to looped/cyclic peptides of protein N of SARS-CoV Urbani: unit not given here
[2] = tested on: control sera (pooled serum of ten healthy LUMC hospital workers; commercial negative donor pooled serum from the Dutch bloodbank); format: binding, human; design: Binding of Control serum LUMC to linear peptides / Binding of Control serum Blood-bank to linear peptides / Binding of Control serum LUMC to looped peptides / Binding of Control Serum Blood-Bank to Looped peptides / Binding of Control serum LUMC to linear peptides of the protein M of SARS-CoV Urbani / Binding of Control serum Blood-bank to linear peptides of the protein M of SARS-CoV Urbani / Binding of Control serum LUMC to looped peptides of the protein M of SARS-CoV Urbani / Binding of Control Serum Blood-Bank to Looped peptides of the protein M of SARS-CoV Urbani: unit not given here
[3] = tested on: rabbit serum obtained by immunizing a rabbit with the SARS-CoV strain Frankfurt 1; format: binding; design: Binding of a rabbit serum to linear peptides / Binding of a rabbit serum to looped peptides / Rabbit serum linear peptides / Rabbit serum looped peptides / Binding of a rabbit serum to linear peptides of protein N of SARS-CoV Urbani (Rabbit serum linear peptides) / Binding of a rabbit serum to looped/cyclic peptides of protein N of SARS-CoV Urbani (Rabbit serum looped peptides): unit not given here
[4] = tested on: recombinant human anti-SARS-CoV antibody 03-018; format: binding; design: Binding of antibody 03-018 to linear peptides of the N protein of SARS-CoV Urbani / Binding of antibody 03-018 to looped/cyclic peptides of the N protein of SARS-CoV Urbani: unit not given here

PAADMDDFSRQLQNS
Binding of serum 1a to linear peptides of protein N of SARS-CoV Urbani [1]: 0.3 | Binding of serum 1a to looped/cyclic peptides of protein N of SARS-CoV Urbani [1]: 0.3 | Binding of serum 1b to linear peptides of protein N of SARS-CoV Urbani [1]: 0.2 | Binding of serum 1b to looped/cyclic peptides of protein N of SARS-CoV Urbani [1]: 0.1 | Binding of serum 2 to linear peptides of protein N of SARS-CoV Urbani [1]: 0.2 | Binding of serum 2 to looped/cyclic peptides of protein N of SARS-CoV Urbani [1]: 0.3 | Binding of serum 6 to linear peptides of protein N of SARS-CoV Urbani [1]: 0.6 | Binding of serum 6 to looped/cyclic peptides of protein N of SARS-CoV Urbani [1]: 1.1 | Binding of serum 37 to linear peptides of protein N of SARS-CoV Urbani [1]: 0.8 | Binding of serum 37 to looped/cyclic peptides of protein N of SARS-CoV Urbani [1]: 0.6 | Binding of serum 62 to linear peptides of protein N of SARS-CoV Urbani [1]: 0.7 | Binding of serum 62 to looped/cyclic peptides of protein N of SARS-CoV Urbani [1]: 0.3 | Binding of serum London to linear peptides of protein N of SARS-CoV Urbani [1]: 0.6 | Binding of serum London to looped/cyclic peptides of protein N of SARS-CoV Urbani [1]: 0.3 | Binding of serum SARS-green to linear peptides of protein N of SARS-CoV Urbani [1]: 0.3 | Binding of serum SARS-green to looped/cyclic peptides of protein N of SARS-CoV Urbani [1]: 0.3 | Binding of serum SARS-yellow to linear peptides of protein N of SARS-CoV Urbani [1]: 0.5 | Binding of serum SARS-yellow to looped/cyclic peptides of protein N of SARS-CoV Urbani [1]: 0.3 | Control Serum Blood-Bank Looped peptides [2]: 0.3 | Control serum Blood-bank linear peptides [2]: 0.8 | Control serum LUMC linear peptides [2]: 0.8 | Control serum LUMC looped peptides [2]: 0.3 | Binding of a rabbit serum to linear peptides of protein N of SARS-CoV Urbani (Rabbit serum linear peptides) [3]: 0.2 | Binding of a rabbit serum to looped/cyclic peptides of protein N of SARS-CoV Urbani (Rabbit serum looped peptides) [3]: 0.3 | Binding of antibody 03-018 to linear peptides of the N protein of SARS-CoV Urbani [4]: 0.1 | Binding of antibody 03-018 to looped/cyclic peptides of the N protein of SARS-CoV Urbani [4]: 0.2

PDDQIGYYRRATRRV
Binding of serum 1a to linear peptides of protein N of SARS-CoV Urbani [1]: 0.2 | Binding of serum 1a to looped/cyclic peptides of protein N of SARS-CoV Urbani [1]: 0.4 | Binding of serum 1b to linear peptides of protein N of SARS-CoV Urbani [1]: 0.1 | Binding of serum 1b to looped/cyclic peptides of protein N of SARS-CoV Urbani [1]: 0.3 | Binding of serum 2 to linear peptides of protein N of SARS-CoV Urbani [1]: 0.2 | Binding of serum 2 to looped/cyclic peptides of protein N of SARS-CoV Urbani [1]: 0.6 | Binding of serum 6 to linear peptides of protein N of SARS-CoV Urbani [1]: 0.2 | Binding of serum 6 to looped/cyclic peptides of protein N of SARS-CoV Urbani [1]: 0.5 | Binding of serum 37 to linear peptides of protein N of SARS-CoV Urbani [1]: 0.6 | Binding of serum 37 to looped/cyclic peptides of protein N of SARS-CoV Urbani [1]: 0.9 | Binding of serum 62 to linear peptides of protein N of SARS-CoV Urbani [1]: 0.5 | Binding of serum 62 to looped/cyclic peptides of protein N of SARS-CoV Urbani [1]: 0.8 | Binding of serum London to linear peptides of protein N of SARS-CoV Urbani [1]: 0.4 | Binding of serum London to looped/cyclic peptides of protein N of SARS-CoV Urbani [1]: 0.5 | Binding of serum SARS-green to linear peptides of protein N of SARS-CoV Urbani [1]: 0.3 | Binding of serum SARS-green to looped/cyclic peptides of protein N of SARS-CoV Urbani [1]: 0.8 | Binding of serum SARS-yellow to linear peptides of protein N of SARS-CoV Urbani [1]: 0.6 | Binding of serum SARS-yellow to looped/cyclic peptides of protein N of SARS-CoV Urbani [1]: 0.7 | Binding of Control Serum Blood-Bank to Looped peptides [2]: 0.8 | Binding of Control serum Blood-bank to linear peptides [2]: 0.6 | Binding of Control serum LUMC to linear peptides [2]: 0.6 | Binding of Control serum LUMC to looped peptides [2]: 0.8 | Recognition of the peptide by the rabbit serum [3]: recognized | Binding of antibody 03-018 to linear peptides of the N protein of SARS-CoV Urbani [4]: 0.1 | Binding of antibody 03-018 to looped/cyclic peptides of the N protein of SARS-CoV Urbani [4]: 0.3

PEASLPYGANKEGIV
Binding of serum 1a to linear peptides of protein N of SARS-CoV Urbani [1]: 0.3 | Binding of serum 1a to looped/cyclic peptides of protein N of SARS-CoV Urbani [1]: 0.3 | Binding of serum 1b to linear peptides of protein N of SARS-CoV Urbani [1]: 0.1 | Binding of serum 1b to looped/cyclic peptides of protein N of SARS-CoV Urbani [1]: 0.2 | Binding of serum 2 to linear peptides of protein N of SARS-CoV Urbani [1]: 0.2 | Binding of serum 2 to looped/cyclic peptides of protein N of SARS-CoV Urbani [1]: 0.4 | Binding of serum 6 to linear peptides of protein N of SARS-CoV Urbani [1]: 0.2 | Binding of serum 6 to looped/cyclic peptides of protein N of SARS-CoV Urbani [1]: 0.2 | Binding of serum 37 to linear peptides of protein N of SARS-CoV Urbani [1]: 0.7 | Binding of serum 37 to looped/cyclic peptides of protein N of SARS-CoV Urbani [1]: 0.4 | Binding of serum 62 to linear peptides of protein N of SARS-CoV Urbani [1]: 0.7 | Binding of serum 62 to looped/cyclic peptides of protein N of SARS-CoV Urbani [1]: 0.3 | Binding of serum London to linear peptides of protein N of SARS-CoV Urbani [1]: 0.5 | Binding of serum London to looped/cyclic peptides of protein N of SARS-CoV Urbani [1]: 0.3 | Binding of serum SARS-green to linear peptides of protein N of SARS-CoV Urbani [1]: 0.3 | Binding of serum SARS-green to looped/cyclic peptides of protein N of SARS-CoV Urbani [1]: 0.3 | Binding of serum SARS-yellow to linear peptides of protein N of SARS-CoV Urbani [1]: 0.6 | Binding of serum SARS-yellow to looped/cyclic peptides of protein N of SARS-CoV Urbani [1]: 0.2 | Binding of Control Serum Blood-Bank to Looped peptides [2]: 0.5 | Binding of Control serum Blood-bank to linear peptides [2]: 0.9 | Binding of Control serum LUMC to linear peptides [2]: 0.7 | Binding of Control serum LUMC to looped peptides [2]: 0.6 | Binding of a rabbit serum to linear peptides of protein N of SARS-CoV Urbani (Rabbit serum linear peptides) [3]: 0.1 | Binding of a rabbit serum to looped/cyclic peptides of protein N of SARS-CoV Urbani (Rabbit serum looped peptides) [3]: 0.2 | Binding of antibody 03-018 to linear peptides of the N protein of SARS-CoV Urbani [4]: 0.1 | Binding of antibody 03-018 to looped/cyclic peptides of the N protein of SARS-CoV Urbani [4]: 0.2

PEQTQGNFGDQDLIR
Binding of serum 1a to looped/cyclic peptides of protein N of SARS-CoV Urbani [1]: 0.4 | Binding of serum 1b to looped/cyclic peptides of protein N of SARS-CoV Urbani [1]: 0.4 | Binding of serum 2 to looped/cyclic peptides of protein N of SARS-CoV Urbani [1]: 0.4 | Binding of serum 6 to looped/cyclic peptides of protein N of SARS-CoV Urbani [1]: 0.2 | Binding of serum 37 to looped/cyclic peptides of protein N of SARS-CoV Urbani [1]: 0.6 | Binding of serum 62 to looped/cyclic peptides of protein N of SARS-CoV Urbani [1]: 0.4 | Binding of serum London to looped/cyclic peptides of protein N of SARS-CoV Urbani [1]: 0.4 | Binding of serum SARS-green to looped/cyclic peptides of protein N of SARS-CoV Urbani [1]: 0.4 | Binding of serum SARS-yellow to looped/cyclic peptides of protein N of SARS-CoV Urbani [1]: 0.6 | Recognition of the peptide by sera of SARS-CoV infected individuals, and form (linear, looped/cyclic) in which it is recognized [1]: recognized in linear form | Binding of Control Serum Blood-Bank to Looped peptides [2]: 0.5 | Binding of Control serum Blood-bank to linear peptides [2]: 0.8 | Binding of Control serum LUMC to linear peptides [2]: 0.9 | Binding of Control serum LUMC to looped peptides [2]: 0.6 | Binding of a rabbit serum to linear peptides of protein N of SARS-CoV Urbani (Rabbit serum linear peptides) [3]: 0.1 | Binding of a rabbit serum to looped/cyclic peptides of protein N of SARS-CoV Urbani (Rabbit serum looped peptides) [3]: 0.5 | Binding of antibody 03-018 to linear peptides of the N protein of SARS-CoV Urbani [4]: 0.1 | Binding of antibody 03-018 to looped/cyclic peptides of the N protein of SARS-CoV Urbani [4]: 0.2

Reference: patent publication US20070128217A1 (priority 2003, published 2007)
